# From patent US20220257592A1, “METHODS OF TREATING CANCER” (HOFFMANN-LA ROCHE INC., priority 2019, published 2022)
# Marks after values point to notes of the source that are not given here.
# Assays:
# [1] = molecular target: cytochrome P450 3A4 (CYP3A4) (Homo sapiens, UniProt P08684); experiment: In vitro metabolism studies; format: in vitro ADME
# [2] = Expanded safety population (338 adult and 30 pediatric patients), fractures; format: in vivo, human
# Description: In adult patients, some fractures occurred in the setting of a fall or other trauma to the affected area, while in pediatric patients, all fractures occurred in patients with minimal or no trauma. In general, there was inadequate assessment for tumor involvement at the site of fracture; however, radiologic abnormalities possibly indicative of tumor involvement were reported in some patients. In both adult and pediatric patients, most fractures were hip or other lower extremity fractures (e.g., femoral or tibial shaft). In a limited number of patients, bilateral femoral neck fractures occurred. The median time to fracture was 3.8 months (range 0.3 to 18.5 months) in adults and 4.0 months (range: 1.8 months to 7.4 months) in pediatric patients.
# [3] = human, in vivo
# TrkB = TrkB (Homo sapiens, UniProt Q16620); settings: cited from earlier work
compound,measurement,setting,value
"CN1CCN(c2ccc(C(=O)Nc3n[nH]c4ccc(Cc5cc(F)cc(F)c5)cc34)c(NC3CCOCC3)c2)CC1 [Entrectinib, N-[5-(3,5-difluorobenzyl)-1H-indazol-3-yl]-4-(4-methyl-piperazin-1-yl)-2-(tetrahydro-pyran-4-ylamino)-benzamide]",CYP3A4 substrate status,[1],sensitive substrate of CYP3A4
same,route of clearance,[1]; in vitro studies,predominantly through hepatic metabolism
same,share of metabolism by CYP3A4,[1]; in vitro studies,~76%
same,Fractures,[2]; 30 pediatric patients,23%
same,Fractures,[2]; 338 adult patients,5%
same,Entrectinib interrupted due to fractures,[2]; adults,41%
same,Median time to fracture,"[2]; adults, range 0.3 to 18.5 months",3.8 months
same,Discontinuation due to fractures,"[2]; human, in vivo",No patients discontinued
same,Risk of fractures,"[2]; human, in vivo",increases the risk of fractures
same,Entrectinib interrupted due to fractures,[2]; pediatric patients,43%
same,Median time to fracture,"[2]; pediatric patients, range: 1.8 months to 7.4 months",4.0 months
same,"Dyspnea, Grade ≥3",[3]; both,6* %
same,Fatal event: completed suicide,[3]; both,0.3%
same,Fatal event: dyspnea,[3]; both,0.6%
same,Fatal event: pneumonia,[3]; both,0.6%
same,Fatal event: sepsis,[3]; both,0.6%
same,Fatal event: tumor lysis syndrome,[3]; both,0.3%
same,"Lung infection, Grade ≥3",[3],6* %
same,inhibition of TrkB tyrosine kinase,TrkB,potent inhibitor
